Experimental data as given in paper PMC6683251, “Flavanol Bioavailability in Two Cocoa Products with Different Phenolic Content. A Comparative Study in Humans” (Nutrients, 2019).
Read-outs that look alike come from different tables or passages of the source.

Tests used:
[1] = Plasma nutrikinetics of flavanol metabolites after a single serving of soluble cocoa product (HPLC-ESI-QToF-MS); type: in vivo, human; conditions: for AUC: human plasma 0-8 h; for AUC / Tmax / Cmax: mean ± SD, n = 13; for Tmax / Cmax: human plasma; for Cmax: read-out: Cmax; for Detection of un-metabolized compound in the collected biological fluids: plasma and urine, CC and CC-PP
Description: The study was carried out in thirteen healthy subjects (3 men and 10 women); the mens’ average age and body mass index were 26.67 ± 3.21 year and 22.47 ± 2.97 kg/m^2, respectively, and womens’ were 32.60 ± 9.85 year and 23.36 ± 3.73 kg/m^2, respectively. They were non-smoker, non-vegetarian, non-pregnant women, who were not taking any medication or nutritional supplements, and were not suffering from any chronic pathology or gastrointestinal disorder. The sample size was estimated attending to similar previous bioavailability studies. The volunteers gave their informed consent prior to participation.
(§1) The present randomized, single-blind study was carried out at the Human Nutrition Unit (HNU) of the Institute of Food Science, Technology and Nutrition (ICTAN). Volunteers attended the HNU on two days, separated by two weeks. Three days previous to each visit, participants were instructed not to consume cocoa products (chocolate, soluble cocoa, etc.), juices, tea, wine, grape must, oranges, tangerines, apples, grapes, strawberries or other berries, beets, onions, soybeans and soy derivatives. In addition, volunteers were asked to complete a 24 h food intake recall the day before they attended the HNU in order to monitor any possible food restriction incompliance.
On each intervention day, volunteers arrived at the HNU after an overnight fast. Prior to the intake of the soluble cocoa product, a nurse inserted a cannula in the cubital vein of the non-prevailing arm of the volunteers and blood samples were collected into EDTA-coated tubes at baseline (t = 0) and 0.5, 1, 2, 3, 4, 6, and 8 h after consuming the corresponding cocoa product. The soluble cocoa products, either 15 g of CC or 25 g CC-PP, were dissolved in 200 mL of semi-skimmed milk following manufacturer’s preparation instructions. Plasma was separated by centrifugation (10 min, 3000 rpm, 4 °C) and stored at −80 °C until further analysis. Urine samples were collected at different time intervals (t = −2–0, 0–4, 4–8, 8–12, and 12–24 h) in urine collection flasks that contained 0.5 g of ascorbic acid as preservative and were aliquoted and frozen at −20 °C until analysis. A polyphenol-free breakfast, lunch and afternoon snack were provided 2 h, 4 h, and 8 h after consumption of cocoa products, and water and isotonic beverages were available ad libitum.
A liquid–liquid extraction and protein precipitation with acetonitrile was used to isolate metabolites from plasma. A 1 mL defrosted plasma sample was mixed with 50 μL of ascorbic acid (0.2 g/mL). After vortexing the aqueous mixture, it was added drop wise to 750 μL of cold acetonitrile and vortexed for 2 min before centrifuging at 12,000 rpm for 10 min at 4 °C. The supernatant was separated, and the pellet was re-extracted twice more following the same procedure. Supernatants were combined and reduced to dryness under a stream of nitrogen at 30 °C. The dried samples were resuspended in 150 μL of aqueous formic acid (0.1%) containing 10% acetonitrile acidified with 0.1% formic acid and centrifuged at 4 °C for 20 min at 14,000 rpm. The final supernatant was collected, filtered (0.45 μm pore-size, cellulose-acetate membrane filters, Albet, Dassel (Germany)) and 30 μL were analyzed by high-performance liquid chromatography coupled to electrospray ionisation and quadrupole time-of-flight mass spectrometry (HPLC-ESI-QToF-MS).
Analyses were performed on an Agilent 1200 series LC system coupled to an Agilent 6530A Accurate-Mass Quadrupole Time-Of-Flight (Q-ToF) with ESI-Jet Stream Technology (Agilent Technologies). Compounds were separated on a reverse-phase Ascentis Express C18 (15 cm × 3 mm, […]) column (Sigma-Aldrich Química, Madrid) preceded by a Supelco 55215-U guard column at 30 °C. […]

[2] = Urinary excretion of flavanol metabolites (0-24 h) after a single serving of soluble cocoa product (HPLC-ESI-QToF-MS); type: in vivo, human; conditions: mean ± SD, n = 13; for Excreted in urine, Total: 24 h urine; for Excreted in urine, Basal: basal urine (−2–0 h, before intake)
Description: They were non-smoker, non-vegetarian, non-pregnant women, who were not taking any medication or nutritional supplements, and were not suffering from any chronic pathology or gastrointestinal disorder. The sample size was estimated attending to similar previous bioavailability studies. The volunteers gave their informed consent prior to participation.
as §1, with “derivatives.” for “derivatives. In addition, volunteers were asked to complete a 24 h food intake recall the day before they attended the HNU in order to monitor any possible food restriction incompliance.”
On each intervention day, volunteers arrived at the HNU after an overnight fast. […] The soluble cocoa products, either 15 g of CC or 25 g CC-PP, were dissolved in 200 mL of semi-skimmed milk following manufacturer’s preparation instructions. Plasma was separated by centrifugation (10 min, 3000 rpm, 4 °C) and stored at −80 °C until further analysis. […] A polyphenol-free breakfast, lunch and afternoon snack were provided 2 h, 4 h, and 8 h after consumption of cocoa products, and water and isotonic beverages were available ad libitum.
Urine samples were diluted with an equivalent volume of Milli-Q water (50%) and centrifuged at 14000 rpm (10 min, 4 °C). Supernatants were filtered (0.45 μm pore-size cellulose-acetate membrane filters) and a 5 µL aliquot was directly injected into the LC-ESI-QToF-MS equipment.
The test samples, either 30 μL of the plasma extract or 5 μL of diluted urine, were injected and separated using a mobile phase consisting of Milli-Q water (phase A) and acetonitrile (phase B), both containing 0.1% formic acid, at a flow rate of 0.3 mL/min. The mobile phase was initially programmed with 90% of solvent A and 10% of B. The elution program increased to 30% of solvent B in 10 min. Then, the initial conditions (10% solvent B) were recovered in 5 min and maintained for 5 min.
Due to the lack of standards for certain phase II metabolites, they were tentatively quantified using the calibration curves of their corresponding phenolic precursors. […] The rest of microbial metabolites identified, derivatives of hydroxyphenylpropionic, hydroxyphenylacetic, hydroxybenzoic and hippuric acids, were quantified using their respective commercially available standards. Urine concentration of the excreted metabolites was normalized by the volume excreted in each studied interval. […] Calibration curves were freshly prepared in a pool of both plasma and urine due to matrix effects.
Statistical analyses were carried out using the program SPSS (version 23.0, SPSS, Inc., IBM Company, New York, NY, USA). Significant differences between metabolites excreted in urine after consumption of CC and CC-PP cocoa products were evaluated based on non-parametric Wilcoxon test (p < 0.05). To determine the absorption and elimination of epicatechin metabolites after consumption of the soluble cocoa products, metabolite nutrikinetics were studied using the pharmacokinetic functions of Microsoft Excel, calculating the maximum concentration (Cmax), area under curve (AUC) and time to reach maximum concentration (Tmax). Data are expressed as mean ± standard deviation.

[3] = after CC-PP (68.25 mg flavanols)
[4] = both sexes, oral, after CC-PP (68.25 mg flavanols), read-out: AUC
[5] = both sexes, oral, after CC-PP (68.25 mg flavanols), read-out: Tmax
[6] = both sexes, oral, after CC-PP (25 g in 200 mL semi-skimmed milk, 68.25 mg flavanols)

Row | Molecule | Excreted in urine, Total ([2]; after CC (19.80 mg flavanols)) | Excreted in urine, 0–4 h ([2]; after CC (19.80 mg flavanols)) | Excreted in urine, 4–8 h ([2]; after CC (19.80 mg flavanols)) | Excreted in urine, 8–12 h ([2]; after CC (19.80 mg flavanols)) | Excreted in urine, 12–24 h ([2]; after CC (19.80 mg flavanols)) | Excreted in urine, Total [2, 3] [µmol] | Excreted in urine, 0–4 h [2, 3] [µmol] | Excreted in urine, 4–8 h [2, 3] | Excreted in urine, 8–12 h [2, 3] | Excreted in urine, 12–24 h [2, 3] | also measured
1 | 5-Phenyl-γ-valerolactone-methoxy-glucuronide [PVL-methoxy-glucuronide] | – | – | – | – | – | – | – | – | – | – | AUC ([1]; after CC (19.80 mg flavanols)): 0.078 ± 0.032; AUC [1, 3]: 0.091 ± 0.059; Tmax ([1]; after CC (19.80 mg flavanols)): 5.3 ± 1.0 h; Cmax ([1]; after CC (15 g in 200 mL semi-skimmed milk, 19.80 mg flavanols)): 22 ± 1 nM; Tmax [1, 3]: 5.6 ± 1.3 h; Cmax ([1]; after CC-PP (25 g in 200 mL semi-skimmed milk, 68.25 mg flavanols)): 27 ± 3 nM
2 | COc1cc([C@H]2Oc3cc(O)cc(OS(=O)(=O)O)c3C[C@H]2O)ccc1O (single isomer, unassigned) [Epicatechin-methoxy-sulfate (isomer 1), Epicatechin-methoxy-sulfate] | 4.428 ± 0.800 µmol | 2.717 ± 0.457 µmol | 1.300 ± 0.197 µmol | 0.154 ± 0.031 µmol | 0.257 ± 0.114 µmol | 12.481 ± 2.243 | 8.642 ± 1.434 | 3.277 ± 0.644 µmol | 0.330 ± 0.095 µmol | 0.232 ± 0.070 µmol | AUC ([1]; both sexes, oral, 19.8 mg, after CC (19.80 mg flavanols), read-out: AUC): 0.122 ± 0.025 µM·h; Tmax ([1]; both sexes, oral, 19.8 mg, after CC (19.80 mg flavanols), read-out: Tmax): 1.3 ± 0.6 h; AUC [1, 4]: 0.173 ± 0.107 µM·h; Cmax ([1]; both sexes, oral, after CC (15 g in 200 mL semi-skimmed milk, 19.80 mg flavanols)): 31 ± 3 nM; Tmax [1, 5]: 1.1 ± 0.6 h; Cmax [1, 6]: 41 ± 2 nM
3 | COc1cc([C@H]2Oc3cc(OS(=O)(=O)O)cc(O)c3C[C@H]2O)ccc1O (single isomer, unassigned) [Epicatechin-methoxy-sulfate (isomer 2), Epicatechin-methoxy-sulfate] | 0.428 ± 0.062 µmol | 0.181 ± 0.032 µmol | 0.247 ± 0.030 µmol | <L.Q. | <L.Q. | 1.200 ± 0.293 | 0.566 ± 0.152 | 0.557 ± 0.120 µmol | 0.077 ± 0.021 µmol | <L.Q. | AUC [1, 4]: 0.145 ± 0.107 µM·h; Tmax [1, 5]: 1.3 ± 0.5 h; Cmax [1, 6]: 41 ± 4 nM
4 | O=C(O)c1ccc(O)c(O)c1 [Protocatechuic acid, 3,4-Dihydroxybenzoic acid] | 0.959 ± 0.217 µmol | 0.227 ± 0.142 µmol | 0.373 ± 0.237 µmol | 0.094 ± 0.047 µmol | 0.104 ± 0.044 µmol | 0.528 ± 0.105 | 0.105 ± 0.016 | 0.113 ± 0.020 µmol | 0.095 ± 0.040 µmol | 0.127 ± 0.015 µmol | Excreted in urine, Basal ([2]; CC intervention): 0.161 ± 0.071 µmol; Excreted in urine, Basal ([2]; CC-PP intervention): 0.088 ± 0.014 µmol
5 | O.Oc1cc(O)c2c(c1)O[C@H](c1ccc(O)c(O)c1)[C@@H](O)C2 [catechin] | – | – | – | – | – | – | – | – | – | – | Detection of un-metabolized compound in the collected biological fluids [1]: Neither un-metabolized epicatechin and catechin nor procyanidins B1 and B2 were detected
6 | Oc1cc(O)c2c(c1)O[C@H](c1ccc(O)c(O)c1)[C@H](O)[C@H]2c1c(O)cc(O)c2c1O[C@H](c1ccc(O)c(O)c1)[C@@H](O)C2 [procyanidins B1, procyanidin B1] | – | – | – | – | – | – | – | – | – | – | Detection of un-metabolized compound in the collected biological fluids [1]: Neither un-metabolized epicatechin and catechin nor procyanidins B1 and B2 were detected
7 | Epicatechin-3′-methoxy-glucuronide | <L.Q. * | <L.Q. | <L.Q. | – | – | 0.121 ± 0.036 | 0.121 ± 0.036 | <L.Q. | <L.Q. | – | –
8 | Hydroxybenzoic acid [Hidroxybenzoic acid] | 0.798 ± 0.162 µmol | 0.145 ± 0.027 µmol | 0.200 ± 0.051 µmol | 0.070 ± 0.018 µmol | 0.195 ± 0.025 µmol | 1.380 ± 0.365 | 0.396 ± 0.060 | 0.298 ± 0.036 µmol | 0.172 ± 0.063 µmol | 0.302 ± 0.169 µmol | Excreted in urine, Basal ([2]; CC intervention): 0.188 ± 0.041 µmol; Excreted in urine, Basal ([2]; CC-PP intervention): 0.212 ± 0.037 µmol
